From patent publication US20200017495A1, “NOVEL HETEROCYCLIC COMPOUNDS AND THEIR USE IN PREVENTING OR TREATING BACTERIAL INFECTIONS” (priority 2017, published 2020)
Where two headings read alike, the source gives them in different places.

What was measured:
[1] = tested on: Citrobacter murliniae (CMU) isolates; assay: MIC of compounds alone and combined with antibacterials, broth microdilution (CLSI); format: cell-based; conditions: Citrobacter murliniae; CMU 210102; alone; read-out: MIC
In short: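 CLSI broth microdilution: log-phase isolates at 5.10^5 CFU/mL in cation-adjusted Mueller-Hinton broth were exposed to compound alone or in combination with an antibacterial, 16-20 h at 35° C in ambient air. MIC is the lowest concentration preventing visible growth, including the antibacterial MIC at each compound concentration.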

[2] = tested on: Citrobacter freundii (CFR) isolates; assay: as above; format: cell-based; conditions: Citrobacter freundii
In short: (§1)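 Broth microdilution in cation-adjusted Mueller-Hinton broth, inoculum 5.10^5 CFU/mL, 16-20 h at 35° C in ambient air, on genotyped isolates. Compound MIC, alone or with an antibacterial, taken visually as lowest concentration preventing growth; antibacterial MIC determined at each compound concentration.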

[3] = tested on: Morganella morganii (MMO) isolates; assay: as above; format: cell-based; conditions: Morganella morganii, read-out: MIC
In short: as §1

[4] = tested on: Klebsiella pneumoniae (KPN) isolates; assay: as above; format: cell-based; conditions: Klebsiella pneumoniae, read-out: MIC
In short: as §1

SHV-12 = SHV-12 (Klebsiella pneumoniae, UniProt P0AD64, E235K/G234S/L31Q); assay: β-lactamase inhibitory activity, IC50 (nitrocefin hydrolysis); format: biochemical
Protocol: Method 1: β-Lactamase Inhibitory Activity, Determination of IC50 (Table 1)
Enzymes were cloned in E. coli expression vector, expressed and purified in house using classical procedures. […] After 30 min of pre-incubation at room temperature, 15 μL of NCF (100 μM final) were finally added in each well. […] Enzyme activity was obtained by subtracting the background from the final signal, and was converted to enzyme inhibition using non inhibited wells. IC50 curves were fitted to a classical Langmuir equilibrium model with Hill slope using XLFIT (IDBS).

[5] = strain CFR UFR251, compound alone, read-out: MIC
[6] = strain MMO UFR145, compound alone
[7] = strain KPN 140347, compound alone
[8] = strain KPN UFR162, compound alone
[9] = strain KPN UFR163, compound alone
[10] = strain KPN UFR164, compound alone
[11] = strain KPN UFR165, compound alone
[12] = strain KPN UFR166, compound alone
[13] = strain KPN UFR167, compound alone
[14] = strain KPN UFR168, compound alone
[15] = strain KPN UFR169, compound alone
[16] = strain KPN UFR170, compound alone
[17] = strain KPN UFR171, compound alone
[18] = strain KPN UFR172, compound alone
[19] = strain KPN UFR229O, compound alone

Chain of SHV-12 (P0AD64 22-286 L31Q/G234S/E235K): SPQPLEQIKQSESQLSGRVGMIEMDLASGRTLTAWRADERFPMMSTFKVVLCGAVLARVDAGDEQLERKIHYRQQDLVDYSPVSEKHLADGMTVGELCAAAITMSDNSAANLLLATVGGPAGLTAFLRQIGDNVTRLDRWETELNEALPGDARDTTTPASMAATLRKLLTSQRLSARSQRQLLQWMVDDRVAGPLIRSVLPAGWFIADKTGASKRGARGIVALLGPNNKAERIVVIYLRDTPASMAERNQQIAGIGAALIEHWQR

O=C1N2CC(c3ncco3)=CC(C2)N1OC(F)(F)C(=O)[O-].[Li+] (centres unmarked) [AF2]
MIC [1]: 16 µg/mL
MIC ([2]; CFR UFR10, alone): 4 µg/mL
MIC ([2]; CFR UFR11, alone): > 32 µg/mL
MIC ([2]; CFR UFR37, alone): 4 µg/mL
MIC ([2]; CFR UFR83, alone): > 32 µg/mL
MIC ([2]; CFR UFR146, alone): 32 µg/mL
MIC ([2]; CFR UFR248, alone): 8 µg/mL
MIC ([2]; strain CFR UFR147, compound alone): 8 µg/mL
MIC ([2]; strain CFR UFR148, compound alone): 8 µg/mL
MIC [2, 5]: 16 µg/mL
MIC ([2]; strain CFR UFR254, compound alone): 4 µg/mL
MIC ([3]; MMO 200321, alone): 32 µg/mL
MIC ([3]; MMO UFR144, alone): > 32 µg/mL
MIC ([3]; MMO UFR240, alone): > 32 µg/mL
MIC ([3]; MMO UFR241, alone): > 32 µg/mL
MIC ([3]; MMO UFR242, alone): > 32 µg/mL
MIC ([3]; MMO UFR243, alone): > 32 µg/mL
MIC ([3]; MMO UFR244, alone): > 32 µg/mL
MIC ([3]; MMO UFR245, alone): > 32 µg/mL
MIC ([3]; MMO UFR246, alone): > 32 µg/mL
MIC ([3]; MMO UFR247, alone): 32 µg/mL
MIC [3, 6]: > 32 µg/mL
MIC ([4]; BAA1898, KPN BAA-1898, alone): 8 µg/mL
MIC ([4]; KPN 6299, alone): 16 µg/mL
MIC ([4]; KPN 110376, alone): 8 µg/mL
MIC ([4]; KPN 121206, alone): 16 µg/mL
MIC ([4]; KPN 131119, alone): 8 µg/mL
MIC ([4]; KPN 140513, alone): 32 µg/mL
MIC ([4]; KPN 160143, alone): 8 µg/mL
MIC ([4]; KPN 190128, alone): 16 µg/mL
MIC ([4]; KPN 190270, alone): 16 µg/mL
MIC ([4]; KPN 190425, alone): 16 µg/mL
MIC ([4]; KPN 190551, alone): 4 µg/mL
MIC ([4]; KPN 200047, alone): 4 µg/mL
MIC ([4]; KPN 200327, alone): 4 µg/mL
MIC ([4]; KPN 260251, alone): 16 µg/mL
MIC ([4]; KPN 260252, alone): 16 µg/mL
MIC ([4]; KPN 260376, alone): 4 µg/mL
MIC ([4]; KPN 270077, alone): > 32 µg/mL
MIC ([4]; KPN 700603, alone): 32 µg/mL
MIC ([4]; KPN ARA, alone): 8 µg/mL
MIC ([4]; KPN LIB, alone): 8 µg/mL
MIC ([4]; KPN UFR22_O, alone): 8 µg/mL
MIC ([4]; KPN UFR23, alone): 16 µg/mL
MIC ([4]; KPN UFR24, alone): 16 µg/mL
MIC ([4]; KPN UFR25, alone): 8 µg/mL
MIC ([4]; KPN UFR27, alone): 16 µg/mL
MIC ([4]; KPN UFR43, alone): 8 µg/mL
MIC ([4]; KPN UFR46, alone): 32 µg/mL
MIC ([4]; KPN UFR53, alone): 16 µg/mL
MIC ([4]; KPN UFR68, alone): 16 µg/mL
MIC ([4]; KPN UFR76, alone): > 32 µg/mL
MIC ([4]; KPN UFR77, alone): 8 µg/mL
MIC ([4]; KPN UFR78, alone): 32 µg/mL
MIC ([4]; KPN UFR79, alone): 16 µg/mL
MIC ([4]; KPN UFR80, alone): 16 µg/mL
MIC ([4]; KPN UFR81, alone): 16 µg/mL
MIC ([4]; KPN UFR215, alone): 32 µg/mL
MIC ([4]; KPN UFR216, alone): 8 µg/mL
MIC ([4]; KPN UFR217, alone): 8 µg/mL
MIC ([4]; KPN UFR218, alone): 4 µg/mL
MIC ([4]; KPN UFR222, alone): 8 µg/mL
MIC ([4]; KPN UFR227O, alone): > 32 µg/mL
MIC [4, 7]: 32 µg/mL
MIC [4, 8]: 16 µg/mL
MIC [4, 9]: 16 µg/mL
MIC [4, 10]: 16 µg/mL
MIC [4, 11]: 16 µg/mL
MIC [4, 12]: 32 µg/mL
MIC [4, 13]: > 32 µg/mL
MIC [4, 14]: 16 µg/mL
MIC [4, 15]: > 32 µg/mL
MIC [4, 16]: 16 µg/mL
MIC [4, 17]: 8 µg/mL
MIC [4, 18]: 8 µg/mL
MIC [4, 19]: 16 µg/mL
IC50 (SHV-12): 4.1 nM

O=C1N2CC(n3cccn3)=CC(C2)N1OC(F)(F)C(=O)[O-].[Li+] (centres unmarked) [AF3]
MIC [1]: 16 µg/mL
MIC ([2]; CFR UFR10, alone, read-out: MIC): 16 µg/mL
MIC ([2]; CFR UFR11, alone, read-out: MIC): > 32 µg/mL
MIC ([2]; CFR UFR37, alone, read-out: MIC): 8 µg/mL
MIC ([2]; CFR UFR83, alone, read-out: MIC): > 32 µg/mL
MIC ([2]; CFR UFR146, alone, read-out: MIC): 32 µg/mL
MIC ([2]; CFR UFR248, alone, read-out: MIC): 8 µg/mL
MIC ([2]; CFR UFR249, alone, read-out: MIC): 8 µg/mL
MIC ([2]; CFR UFR250, alone, read-out: MIC): 16 µg/mL
MIC ([2]; strain CFR UFR147, compound alone, read-out: MIC): 4 µg/mL
MIC ([2]; strain CFR UFR148, compound alone, read-out: MIC): 16 µg/mL
MIC [2, 5]: 8 µg/mL
MIC ([2]; strain CFR UFR252, compound alone, read-out: MIC): 32 µg/mL
MIC ([2]; strain CFR UFR253, compound alone, read-out: MIC): 32 µg/mL
MIC ([2]; strain CFR UFR254, compound alone, read-out: MIC): 32 µg/mL
MIC ([3]; MMO 200321, alone): 32 µg/mL
MIC ([3]; MMO UFR144, alone): 32 µg/mL
MIC ([3]; MMO UFR240, alone): > 32 µg/mL
MIC ([3]; MMO UFR241, alone): 32 µg/mL
MIC ([3]; MMO UFR242, alone): 32 µg/mL
MIC ([3]; MMO UFR243, alone): > 32 µg/mL
MIC ([3]; MMO UFR244, alone): > 32 µg/mL
MIC ([3]; MMO UFR245, alone): 32 µg/mL
MIC ([3]; MMO UFR246, alone): 32 µg/mL
MIC ([3]; MMO UFR247, alone): 16 µg/mL
MIC [3, 6]: > 32 µg/mL
MIC ([4]; BAA1898, KPN BAA-1898, alone): 16 µg/mL
MIC ([4]; KPN 6299, alone): 16 µg/mL
MIC ([4]; KPN 110376, alone): 16 µg/mL
MIC ([4]; KPN 121206, alone): 16 µg/mL
MIC ([4]; KPN 131119, alone): 8 µg/mL
MIC ([4]; KPN 140513, alone): 32 µg/mL
MIC ([4]; KPN 160143, alone): 4 µg/mL
MIC ([4]; KPN 190128, alone): 32 µg/mL
MIC ([4]; KPN 190270, alone): 32 µg/mL
MIC ([4]; KPN 190425, alone): 16 µg/mL
MIC ([4]; KPN 190551, alone): 4 µg/mL
MIC ([4]; KPN 200047, alone): 4 µg/mL
MIC ([4]; KPN 200327, alone): 4 µg/mL
MIC ([4]; KPN 260251, alone): 16 µg/mL
MIC ([4]; KPN 260252, alone): > 32 µg/mL
MIC ([4]; KPN 260376, alone): 4 µg/mL
MIC ([4]; KPN 270077, alone): > 32 µg/mL
MIC ([4]; KPN 700603, alone): 32 µg/mL
MIC ([4]; KPN ARA, alone): 8 µg/mL
MIC ([4]; KPN LIB, alone): 8 µg/mL
MIC ([4]; KPN UFR22_O, alone): 16 µg/mL
MIC ([4]; KPN UFR23, alone): 8 µg/mL
MIC ([4]; KPN UFR24, alone): 32 µg/mL
MIC ([4]; KPN UFR25, alone): 8 µg/mL
MIC ([4]; KPN UFR27, alone): 16 µg/mL
MIC ([4]; KPN UFR28, alone): 16 µg/mL
MIC ([4]; KPN UFR33, alone): > 32 µg/mL
MIC ([4]; KPN UFR42, alone): 16 µg/mL
MIC ([4]; KPN UFR43, alone): 8 µg/mL
MIC ([4]; KPN UFR46, alone): 32 µg/mL
MIC ([4]; KPN UFR53, alone): 8 µg/mL
MIC ([4]; KPN UFR65, alone): 32 µg/mL
MIC ([4]; KPN UFR66, alone): 32 µg/mL
MIC ([4]; KPN UFR67, alone): 32 µg/mL
MIC ([4]; KPN UFR68, alone): 16 µg/mL
MIC ([4]; KPN UFR76, alone): > 32 µg/mL
MIC ([4]; KPN UFR77, alone): 8 µg/mL
MIC ([4]; KPN UFR78, alone): > 32 µg/mL
MIC ([4]; KPN UFR79, alone): 32 µg/mL
MIC ([4]; KPN UFR80, alone): 32 µg/mL
MIC ([4]; KPN UFR81, alone): 16 µg/mL
MIC ([4]; KPN UFR215, alone): 32 µg/mL
MIC ([4]; KPN UFR216, alone): 4 µg/mL
MIC ([4]; KPN UFR217, alone): 8 µg/mL
MIC ([4]; KPN UFR218, alone): 4 µg/mL
MIC ([4]; KPN UFR219, alone): 16 µg/mL
MIC ([4]; KPN UFR220, alone): 4 µg/mL
MIC ([4]; KPN UFR221, alone): 4 µg/mL
MIC ([4]; KPN UFR222, alone): 8 µg/mL
MIC ([4]; KPN UFR227O, alone): > 32 µg/mL
MIC [4, 7]: 32 µg/mL
MIC [4, 8]: 16 µg/mL
MIC [4, 9]: 16 µg/mL
MIC [4, 10]: 16 µg/mL
MIC [4, 11]: 16 µg/mL
MIC [4, 12]: > 32 µg/mL
MIC [4, 13]: > 32 µg/mL
MIC [4, 14]: 16 µg/mL
MIC [4, 15]: > 32 µg/mL
MIC [4, 16]: 16 µg/mL
MIC [4, 17]: 8 µg/mL
MIC [4, 18]: 8 µg/mL
MIC [4, 19]: 32 µg/mL
IC50 (SHV-12): 4.3 nM
